Measurements: US8372430B2, “Compositions, methods, and kits useful for the alleviation of gastrointestinal effects” (priority 2002, dated 2013)

Experiments:
overweight human subject [1] = assay: Example 5: XENICAL regimen changed to XENICAL plus behenic acid capsules in an overweight human subject; type: in vivo; conditions: behenic acid 1.2 g capsule with XENICAL (120 mg orlistat) at each meal
Description: An overweight human subject is given a therapeutic dose of XENICAL@ (360 mg orlistat per day/three doses of 120 mg orlistat with each meal) to assist in the reduction of body weight.
When these symptoms are first observed, the regimen is modified to a combination of XENICAL® and behenic acid. At each meal, the subject consumes two capsules. The first capsule is XENICAL® (120 mg orlistat) while the second capsule contains the behenic acid (1.2 g). These capsules are co-packaged in a kit for the convenience of the subject.

[2] = system: male, Sprague-Dawley rats; assay: Fur appearance score: separation of excreted dietary oil from fecal matter in rats fed food compositions; type: in vivo, rat; conditions: food with 0.04% orlistat, no calcium stearate, ad libitum 11 days, assessed days 7 and 11; scale 1 (no oil visible on fur) to 5 (>90% of fur oiled)
Source text: Groups of male, Sprague-Dawley rats (commercially available from Harlan Labs, Indianapolis, Ind.), were presented with a composition, which was a food composition, containing either 0.04% orlistat, by weight of the composition, or the combination of 0.04% orlistat and 1%, 0.5%, or 0.25% calcium stearate, all by weight of the composition. The fat content of each composition provided 30% of the consumed energy of the rat. Another group of rats (also male, Sprague Dawley, commercially available from Harlan Labs, Indianapolis, Ind.) were presented with the same food compositions, except devoid of orlistat and calcium stearate (“control compositions”). All rats consumed their respective compositions ad libitum for 11 days.
On the seventh and eleventh days of these dietary regimens, the appearance of each rat was viewed by assessors not aware of the identity of composition consumed by the rats. Separation of oil from the other fecal matter of each rat was determined by the use of a scale that quantified the fraction of the rat's fur that was coated with excreted dietary oil. […] Intermediate scores of “2,” “3,” and “4” indicated partial covering of the rat's fur, with “2” corresponding to approximately 10% coverage or less, “3” corresponding to approximately greater than 10% to approximately 50% coverage, and “4” corresponding to approximately greater than 50% to approximately 90% coverage.

overweight human subject [3] = assay: Example 4: XENICAL regimen with separate magnesium stearate wafer in an overweight human subject; type: in vivo
Description: XENICAL® is prescribed to an overweight human subject at a therapeutic dose of 120 mg orlistat taken with each of three daily meals. This dose causes a reduction in the absorption of dietary fat such that total caloric intake by the subject is reduced by approximately 10%, relative to the subjects normal dietary energy intake. […] In particular, magnesium stearate is provided at an amount of 1 gram incorporated into a wafer that is consumed with each meal, resulting in a total consumption of 3 grams per day of magnesium stearate. […] The efficacy of the XENICAL® is unaffected by the addition of magnesium stearate to the diet.

## CCCCCCCCCCCCCCCCCCCCCC(=O)O [behenic acid]
Overweight human subject [1]
  state of the excreted fat: stiffened

## CCCCCCCCCCCC(CC1OC(=O)C1CCCCCC)OC(=O)C(CC(C)C)NC=O (stereo not shown) [orlistat, tetrahydrolipstatin]
[2]
  mean fur appearance score: 2.4

## magnesium stearate
Overweight human subject [3]; 1 gram magnesium stearate in a wafer with each meal (3 grams per day), together with XENICAL
  effect on gastrointestinal discomfort and anal leakage of unabsorbed oil: prevents the gastrointestinal discomfort and anal leakage of unabsorbed oil
Overweight human subject [3]; 3 grams per day magnesium stearate with XENICAL 120 mg orlistat per meal
  efficacy of XENICAL on addition of magnesium stearate to the diet: unaffected
